Source: paper PMC12040169 (PLOS Biology, 2025)

Legend:
[1] = system: T1, CTL2-GFP (C. trachomatis L2/434/Bu, GFP-expressing); experiment: microbe, parasite or virus in culture; set-up: Intracellular C. trachomatis growth in HeLa cells, bulk GFP fluorescence relative to DMSO; settings: Chlamydia trachomatis, HeLa, 28.5 h; bulk GFP, mean of 2; read-out: % of control remaining
T1 construct: L2/434/Bu, GFP-expressing
Procedure: MICs were calculated as described above.

[2] = in vitro; set-up: Viability of infected HeLa host cells, resazurin conversion, bulk resorufin fluorescence relative to DMSO; settings: human, hela cells; bulk resorufin, mean of 2
[3] = in vitro; settings: human, hela cells, % viability
[4] = system: T2, C. trachomatis L2/434/Bu expressing GFP (CTL2-GFP); experiment: microbe, parasite or virus in culture; set-up: C. trachomatis total inclusion area by high-content imaging, normalised to DMSO; settings: Chlamydia trachomatis, HeLa, 28.5 h; total inclusion area; read-out: % of control remaining
T2 construct: L2/434/Bu GFP intracellular growth in HeLa cells
In short: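 Read-out combines bulk fluorescence and imaging: GFP tracks chlamydial growth, resorufin tracks host cell viability. Plates were then fixed and Hoechst-stained so inclusions and nuclei could be imaged and counted per well.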

Cc1cc2cc(C(=O)N3CCC(c4c(C(=O)NC(C)C)sc5ccccc45)C3)ccc2o1 (stereo not drawn) [CBK285873] gave an activity at 1 µM [1] of 148%, an activity at 5 µM [1] of 48.7% and an activity at 10 µM [1] of 31.6%. The viability at 28.5 h, 1 µM [2] was 90%, the viability at 28.5 h, 5 µM [2] was 97.6% and the viability at 28.5 h, 10 µM [2] was 96.2%. The viability at 28.5 h, 10 µM [3] was 87.1%, the activity at 1 µM [4] was 150% and the activity at 5 µM [4] was 85.1%. It also gave an activity at 10 µM [4] of 51.5%.
In the case of O=C(c1ccc(-c2ccc(F)cc2)o1)N1C[C@H]2CC[C@](O)(c3ccc(F)cc3)[C@H]2C1 [CBK286415], the activity at 1 µM [1] is reported as 6.79%, the activity at 5 µM [1] is reported as 7.93% and the activity at 10 µM [1] is reported as 15.1%. For the same compound, the viability at 28.5 h, 1 µM [2] was 91.9%, the viability at 28.5 h, 5 µM [2] was 86.5% and the viability at 28.5 h, 10 µM [2] was 91.6%. For the same compound, the viability at 28.5 h, 10 µM [3] was 94.1%, the activity at 1 µM [4] was 0.419% and the activity at 5 µM [4] was 0.168%. It also gave an activity at 10 µM [4] of 0.106%.
For Cc1ccc(N2C(=O)c3[nH]nc(C)c3C2c2ccc(O)cc2)cc1 (stereo not drawn) [CBK287915], the activity at 1 µM [1] was 108%, the activity at 5 µM [1] was 89.5% and the activity at 10 µM [1] was 54.1%. The viability at 28.5 h, 1 µM [2] was 98%, the viability at 28.5 h, 5 µM [2] was 107% and the viability at 28.5 h, 10 µM [2] was 106%. For the same compound, the viability at 28.5 h, 10 µM [3] was 94.7%, the activity at 1 µM [4] was 111% and the activity at 5 µM [4] was 93.4%. It also gave an activity at 10 µM [4] of 54.6%.
Work on Cc1c(C(=O)Nc2ccc(Cl)cc2)sc2c1C(c1cccnc1)CC(=O)N2 (stereo not drawn) [CBK288233] yielded an activity at 1 µM [1] of 99.5%, an activity at 5 µM [1] of 55.5% and an activity at 10 µM [1] of 83.6%. For the same compound, the viability at 28.5 h, 1 µM [2] was 101%, the viability at 28.5 h, 5 µM [2] was 98.8% and the viability at 28.5 h, 10 µM [2] was 97.1%. It also gave a viability at 28.5 h, 10 µM [3] of 87.1%, an activity at 1 µM [4] of 100% and an activity at 5 µM [4] of 56.2%. For the same compound, the activity at 10 µM [4] was 44.9%.
With Cc1cccc(Nc2nc(C)cc3n[nH]c(=O)n23)c1 [CBK288477] the activity at 1 µM [1] was 134%, the activity at 5 µM [1] was 57.5% and the activity at 10 µM [1] was 29.6%. It also gave a viability at 28.5 h, 1 µM [2] of 102%, a viability at 28.5 h, 5 µM [2] of 104% and a viability at 28.5 h, 10 µM [2] of 81.5%. The viability at 28.5 h, 10 µM [3] was 89.2%, the activity at 1 µM [4] was 74.4% and the activity at 5 µM [4] was 33.7%. For the same compound, the activity at 10 µM [4] was 17.7%.
Compound COc1ccc(C=CC(=O)Nc2sc3c(c2C(=O)O)CCCC3)cc1OC [CBK296103] has an activity at 1 µM [1] of 118%, an activity at 5 µM [1] of 85.9% and an activity at 10 µM [1] of 27.4%. It also gave a viability at 28.5 h, 1 µM [2] of 91.1%, a viability at 28.5 h, 5 µM [2] of 87.4% and a viability at 28.5 h, 10 µM [2] of 89.7%. The viability at 28.5 h, 10 µM [3] was 117%, the activity at 1 µM [4] was 117% and the activity at 5 µM [4] was 69.8%. For the same compound, the activity at 10 µM [4] was 22.5%.
Compound CCCn1c(NC(=O)C(C)Oc2ccc(Cl)cc2Cl)nc2ccccc21 (stereo not drawn) [CBK296979] has an activity at 1 µM [1] of 129%, an activity at 5 µM [1] of 103% and an activity at 10 µM [1] of 54.1%. It also gave a viability at 28.5 h, 1 µM [2] of 88%, a viability at 28.5 h, 5 µM [2] of 93.1% and a viability at 28.5 h, 10 µM [2] of 89.7%. It also gave a viability at 28.5 h, 10 µM [3] of 108%, an activity at 1 µM [4] of 137% and an activity at 5 µM [4] of 94.8%. For the same compound, the activity at 10 µM [4] was 58.2%.
O=C(O)c1cn(C2CC2)c2cc(N3CCN(C(=O)Cc4ccsc4)CC3)c(F)cc2c1=O [CBK297142] showed an activity at 1 µM [1] of 137%, an activity at 5 µM [1] of 28.4% and an activity at 10 µM [1] of 17.7%. The viability at 28.5 h, 1 µM [2] was 90.6%, the viability at 28.5 h, 5 µM [2] was 93% and the viability at 28.5 h, 10 µM [2] was 90.7%. For the same compound, the viability at 28.5 h, 10 µM [3] was 88.9%, the activity at 1 µM [4] was 114% and the activity at 5 µM [4] was 17.9%. For the same compound, the activity at 10 µM [4] was 12.9%.
Cc1cc(NS(=O)(=O)c2ccc(NC(=O)CCCOc3ccc(Cl)cc3Cl)cc2)no1 [CBK297145] gave an activity at 1 µM [1] of 128%, an activity at 5 µM [1] of 62.6% and an activity at 10 µM [1] of 39.3%. For the same compound, the viability at 28.5 h, 1 µM [2] was 85.1%, the viability at 28.5 h, 5 µM [2] was 93.5% and the viability at 28.5 h, 10 µM [2] was 89.4%. The viability at 28.5 h, 10 µM [3] was 103%, the activity at 1 µM [4] was 125% and the activity at 5 µM [4] was 84.3%. The activity at 10 µM [4] was 56.5%.
CCN1CCN(c2cc3c(cc2F)c(=O)c(C(=O)NCCOC)cn3C2CC2)CC1 [CBK300529] showed an activity at 1 µM [1] of 36.3%, an activity at 5 µM [1] of 5.5% and an activity at 10 µM [1] of 6.24%. It also gave a viability at 28.5 h, 1 µM [2] of 88.9%, a viability at 28.5 h, 5 µM [2] of 93% and a viability at 28.5 h, 10 µM [2] of 88.7%. It also gave a viability at 28.5 h, 10 µM [3] of 94.2%, an activity at 1 µM [4] of 24.3% and an activity at 5 µM [4] of 3.14%. For the same compound, the activity at 10 µM [4] was 0.623%.
Work on CC(Cc1nc(-c2nccn2C)cs1)n1cc(Cl)cn1 (stereo not drawn) [CBK304114] yielded an activity at 1 µM [1] of 79.3%, an activity at 5 µM [1] of 21% and an activity at 10 µM [1] of 7.42%. The viability at 28.5 h, 1 µM [2] was 108%, the viability at 28.5 h, 5 µM [2] was 100% and the viability at 28.5 h, 10 µM [2] was 105%. For the same compound, the viability at 28.5 h, 10 µM [3] was 90.1%, the activity at 1 µM [4] was 97.2% and the activity at 5 µM [4] was 15.4%. It also gave an activity at 10 µM [4] of 7.1%.
Work on OCCn1ncc2c(NCc3cccc(Cn4ccnc4)c3)ncnc21 [CBK304184] yielded an activity at 1 µM [1] of 144%, an activity at 5 µM [1] of 158% and an activity at 10 µM [1] of 128%. The viability at 28.5 h, 1 µM [2] was 96.1%, the viability at 28.5 h, 5 µM [2] was 92% and the viability at 28.5 h, 10 µM [2] was 92.4%. For the same compound, the viability at 28.5 h, 10 µM [3] was 90.3%, the activity at 1 µM [4] was 81% and the activity at 5 µM [4] was 101%. The activity at 10 µM [4] was 58.7%.
